ChEMBL document CHEMBL1155461, “Emerging targets in osteoporosis disease modification” (J Med Chem, 2010)
Each block holds one compound with its values, some of them ahead of it.

Legend:
[1] = Selectivity for integrin alphaVbeta3 over integrin alphaVbeta5
Integrin alpha-V/beta-3 [2] = molecular target: T1, Integrin alpha-V/beta-3 (Homo sapiens, UniProt P05106+P06756)
Rattus norvegicus [3] = experiment: Short duration (5-10 min) elevation in PTH as Cmax in rats after 10 umol/kg intravenous dose; type: functional, organism-based
Rattus norvegicus [4] = experiment: Induction of bone formation in ovariectomized rat assessed as increase in total bone mineral content at 1 mg/kg, sc administered daily for 6 weeks relative to control; type: functional; settings: route subcutaneous
[5] = molecular target: Prostaglandin E2 receptor EP1 subtype (Homo sapiens, UniProt P34995); experiment: Binding affinity to EP1 receptor
[6] = Selectivity for cathepsin K over cathepsin B
[7] = Selectivity for cathepsin K over cathepsin L
[8] = Selectivity for cathepsin K over cathepsin S
Cathepsin K = Cathepsin K (Homo sapiens, UniProt P43235); experiment: Inhibition of humanized rabbit cathepsin K
[9] = Selectivity for cathepsin K over cathepsin V
[10] = Selectivity for cathepsin K over cathepsin H
[11] = Selectivity for cathepsin K over cathepsin F
[12] = Induction of osteogenesis in rat ROS 17/2.8 cells assessed as stimulation of cell proliferation at 1 nM; type: functional
Mus musculus [13] = species on record: Mus musculus; experiment: Induction of bone formation in GPR55 knockout male mouse assessed as increase in tibia mass volume; type: functional
Mus musculus [14] = species on record: Mus musculus; experiment: Induction of bone formation in GPR55 knockout male mouse assessed as increase in femur mass volume; type: functional
[15] = molecular target: G-protein coupled receptor 55 (Homo sapiens, UniProt Q9Y2T6); experiment: Binding affinity to GPR55
Mus musculus [16] = experiment: Antiosteoporotic activity in mouse assessed as decrease in bone resorption-associated serum CTX-1 level at 10 mg/kg administered 3 times a week for 8 weeks; type: functional; settings: 1344 h
Mus musculus [17] = experiment: Antiosteoporotic activity in mouse assessed as increase in bone volume at 10 mg/kg administered 3 times a week for 8 weeks; type: functional, Bone element
MC3T3-E1 [18] = experiment: Induction of osteogenesis in mouse MC3T3-E1 cells assessed as increase in osteoblast differentiation-associated ALP level at 0.01 uM; type: functional
MC3T3-E1 [19] = experiment: Induction of osteogenesis in mouse MC3T3-E1 cells assessed as increase in bone mineralization at 1 uM; type: functional
Homo sapiens [20] = experiment: Antiosteoporotic activity in postmenopausal woman with osteoporosis assessed as decrease in bone resorption-associated serum CTX-1 level at 50 mg/kg; type: functional
Homo sapiens [21] = experiment: Antiosteoporotic activity in postmenopausal woman with osteoporosis assessed as decrease in bone resorption-associated urinary CTX-1 level at 50 mg/kg; type: functional; settings: Urine
Homo sapiens [22] = experiment: Antiosteoporotic activity in postmenopausal woman with osteoporosis assessed as increase lumbar spine bone mineral density at 50 mg/kg; type: functional
Homo sapiens [23] = experiment: Antiosteoporotic activity in postmenopausal woman with osteoporosis assessed as increase hip bone mineral density at 50 mg/kg; type: functional, Bone of hip region
[24] = Clearance in rat; type: ADME, organism-based; settings: in vivo
[25] = molecular target: T2, Extracellular calcium-sensing receptor (Homo sapiens, UniProt P41180)
T2 sequence (P41180 whole entry): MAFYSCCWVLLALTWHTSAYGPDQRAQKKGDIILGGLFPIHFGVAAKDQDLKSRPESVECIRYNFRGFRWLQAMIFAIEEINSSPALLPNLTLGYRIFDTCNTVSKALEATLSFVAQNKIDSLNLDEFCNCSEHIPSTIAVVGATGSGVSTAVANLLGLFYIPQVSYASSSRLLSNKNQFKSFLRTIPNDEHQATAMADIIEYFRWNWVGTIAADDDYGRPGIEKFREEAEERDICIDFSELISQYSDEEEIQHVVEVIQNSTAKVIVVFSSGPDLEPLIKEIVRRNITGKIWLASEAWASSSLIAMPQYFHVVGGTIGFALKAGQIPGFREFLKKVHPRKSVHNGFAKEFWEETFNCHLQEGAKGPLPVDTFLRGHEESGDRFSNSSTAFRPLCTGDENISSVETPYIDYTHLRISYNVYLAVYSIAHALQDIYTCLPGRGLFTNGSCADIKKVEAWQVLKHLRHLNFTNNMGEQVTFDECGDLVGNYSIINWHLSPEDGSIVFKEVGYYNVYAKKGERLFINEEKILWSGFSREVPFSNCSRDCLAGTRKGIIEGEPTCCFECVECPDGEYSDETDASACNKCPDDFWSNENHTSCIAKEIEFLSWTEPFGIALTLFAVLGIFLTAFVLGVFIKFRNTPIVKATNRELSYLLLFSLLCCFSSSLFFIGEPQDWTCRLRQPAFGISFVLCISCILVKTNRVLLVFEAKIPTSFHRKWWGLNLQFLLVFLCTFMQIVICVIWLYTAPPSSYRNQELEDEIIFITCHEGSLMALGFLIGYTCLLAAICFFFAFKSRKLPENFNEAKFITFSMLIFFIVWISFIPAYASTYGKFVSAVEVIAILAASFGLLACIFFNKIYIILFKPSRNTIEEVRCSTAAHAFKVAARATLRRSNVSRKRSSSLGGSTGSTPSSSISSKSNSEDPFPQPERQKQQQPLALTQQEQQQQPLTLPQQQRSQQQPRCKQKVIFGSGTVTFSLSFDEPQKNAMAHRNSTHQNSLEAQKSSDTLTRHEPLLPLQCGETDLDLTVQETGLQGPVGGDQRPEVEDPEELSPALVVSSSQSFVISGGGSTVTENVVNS

Integrin alpha-V/beta-3 [26] = molecular target: T1, Integrin alpha-V/beta-3; experiment: Inhibition of integrin alpha-V-beta-3-mediated adhesion of human cells M21 cells; type: cell-based
MC3T3-E1 [27] = experiment: Induction of osteogenesis in mouse MC3T3-E1 cells assessed as increase in osteoblast differentiation-associated ALP level at 0.03 uM; type: functional
MC3T3-E1 [28] = experiment: Induction of osteogenesis in mouse MC3T3-E1 cells assessed as increase in osteoblast differentiation-associated collagen synthesis at 0.03 uM; type: functional
MC3T3-E1 [29] = experiment: Induction of osteogenesis in mouse MC3T3-E1 cells assessed as increase in bone mineralization at 0.03 uM; type: functional
Rattus norvegicus [30] = experiment: Short duration (5-10 min) elevation in PTH as Cmax in rats after 3 umol/kg intravenous dose; type: functional

T1 sequence (P05106 27-788 limits assumed): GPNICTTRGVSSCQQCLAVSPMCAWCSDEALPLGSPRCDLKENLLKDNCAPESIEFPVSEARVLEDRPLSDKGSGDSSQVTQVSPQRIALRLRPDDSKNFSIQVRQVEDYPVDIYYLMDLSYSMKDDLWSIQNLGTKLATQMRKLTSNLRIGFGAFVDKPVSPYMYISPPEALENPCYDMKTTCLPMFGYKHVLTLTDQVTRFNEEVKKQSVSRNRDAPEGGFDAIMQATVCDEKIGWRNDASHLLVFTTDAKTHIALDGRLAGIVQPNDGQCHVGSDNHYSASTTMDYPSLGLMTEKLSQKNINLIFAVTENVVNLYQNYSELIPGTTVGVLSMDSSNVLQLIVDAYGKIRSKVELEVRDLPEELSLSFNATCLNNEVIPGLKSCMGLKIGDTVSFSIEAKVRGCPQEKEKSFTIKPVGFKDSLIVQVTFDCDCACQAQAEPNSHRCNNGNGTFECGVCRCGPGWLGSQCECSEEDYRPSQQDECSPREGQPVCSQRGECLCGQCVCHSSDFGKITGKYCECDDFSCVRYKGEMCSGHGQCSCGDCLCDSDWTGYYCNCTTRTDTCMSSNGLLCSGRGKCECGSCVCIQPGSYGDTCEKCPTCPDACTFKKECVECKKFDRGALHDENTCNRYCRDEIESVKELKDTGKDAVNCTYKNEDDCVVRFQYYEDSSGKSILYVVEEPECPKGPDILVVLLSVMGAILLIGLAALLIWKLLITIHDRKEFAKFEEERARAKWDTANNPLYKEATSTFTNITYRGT
T1 sequence (P06756 31-889 limits assumed): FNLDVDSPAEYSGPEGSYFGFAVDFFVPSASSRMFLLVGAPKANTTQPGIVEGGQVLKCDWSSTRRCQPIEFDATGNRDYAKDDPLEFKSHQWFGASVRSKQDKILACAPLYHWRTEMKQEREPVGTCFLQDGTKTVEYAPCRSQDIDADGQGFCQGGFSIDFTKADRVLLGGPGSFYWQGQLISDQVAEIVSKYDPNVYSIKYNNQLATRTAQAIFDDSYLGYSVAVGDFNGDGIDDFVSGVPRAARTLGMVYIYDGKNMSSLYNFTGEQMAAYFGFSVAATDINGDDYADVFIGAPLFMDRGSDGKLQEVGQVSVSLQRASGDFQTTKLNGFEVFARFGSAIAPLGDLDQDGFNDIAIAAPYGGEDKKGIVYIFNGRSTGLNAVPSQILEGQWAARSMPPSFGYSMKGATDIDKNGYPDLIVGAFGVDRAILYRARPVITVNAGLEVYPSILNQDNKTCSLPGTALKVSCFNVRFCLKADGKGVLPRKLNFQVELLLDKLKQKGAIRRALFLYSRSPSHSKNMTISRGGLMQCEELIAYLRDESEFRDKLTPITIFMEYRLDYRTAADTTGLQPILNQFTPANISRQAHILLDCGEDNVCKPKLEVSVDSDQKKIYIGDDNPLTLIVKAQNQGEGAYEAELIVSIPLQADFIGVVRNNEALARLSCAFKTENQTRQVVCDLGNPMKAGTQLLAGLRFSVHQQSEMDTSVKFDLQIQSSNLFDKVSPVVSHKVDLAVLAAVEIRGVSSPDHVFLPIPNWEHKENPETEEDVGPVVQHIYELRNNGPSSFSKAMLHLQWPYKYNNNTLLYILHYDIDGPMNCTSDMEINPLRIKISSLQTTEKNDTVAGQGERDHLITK
T1 sequence (P06756 891-1048 limits assumed): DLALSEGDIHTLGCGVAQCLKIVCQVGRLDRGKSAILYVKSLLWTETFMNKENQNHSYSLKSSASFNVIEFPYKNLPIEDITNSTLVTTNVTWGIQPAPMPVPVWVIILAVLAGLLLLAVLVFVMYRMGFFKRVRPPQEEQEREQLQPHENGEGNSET
G-protein coupled receptor 55, sequence (Q9Y2T6 whole entry): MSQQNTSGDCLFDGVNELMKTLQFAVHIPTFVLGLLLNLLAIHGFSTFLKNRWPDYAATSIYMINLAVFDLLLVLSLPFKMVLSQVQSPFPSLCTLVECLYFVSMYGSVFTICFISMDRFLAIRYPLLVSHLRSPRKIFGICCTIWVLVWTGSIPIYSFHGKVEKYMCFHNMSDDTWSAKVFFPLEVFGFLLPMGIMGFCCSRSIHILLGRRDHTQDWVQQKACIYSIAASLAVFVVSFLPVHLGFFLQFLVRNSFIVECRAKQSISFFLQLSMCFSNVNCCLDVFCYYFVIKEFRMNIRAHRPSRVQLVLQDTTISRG
Prostaglandin E2 receptor EP1 subtype, sequence (P34995 whole entry): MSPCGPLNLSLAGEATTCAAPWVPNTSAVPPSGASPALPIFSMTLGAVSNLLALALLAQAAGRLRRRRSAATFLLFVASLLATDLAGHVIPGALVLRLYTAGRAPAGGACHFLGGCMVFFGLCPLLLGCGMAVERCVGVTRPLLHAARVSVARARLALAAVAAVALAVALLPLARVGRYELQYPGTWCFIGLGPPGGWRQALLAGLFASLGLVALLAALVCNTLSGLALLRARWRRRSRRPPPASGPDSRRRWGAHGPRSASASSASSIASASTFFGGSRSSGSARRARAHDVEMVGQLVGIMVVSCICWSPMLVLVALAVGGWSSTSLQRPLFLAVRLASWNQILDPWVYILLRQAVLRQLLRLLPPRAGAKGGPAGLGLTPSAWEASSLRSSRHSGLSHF

Selectivity ratio [1]: 3.5
IC50 (Integrin alpha-V/beta-3 [2]): 304 nM
SMILES: CC(C)(C)OC(=O)[C@@H]1C[C@H](CC(=O)O)[C@H]2CC[C@H](NC(=O)[C@@H](N)CCCNC(=N)N)C(=O)N21

IC50 (Integrin alpha-V/beta-3 [2]): 30 nM
SMILES: COc1cc(Cl)c(/C=C2\S/C(=N/c3cccc(C(=O)O)c3)N(C)C2=O)cc1OC

clearance [24]: 89 mL/min/kg
IC50 [25]: 73 nM
SMILES: CC(C)(CC1Cc2ccccc2C1)NC[C@@H](O)COc1cc(CCC(=O)O)ccc1C#N [SB-423562]

IC50 [25]: 520 nM
SMILES: CCOC(=O)CCc1ccc(C#N)c(OC[C@H](O)CNC(C)(C)CC2Cc3ccccc3C2)c1

IC50 [25]: 97 nM
SMILES: CCc1cc2c(=O)n(CCc3ccccc3F)c(-c3ccccc3O)nc2cc1C
Cmax PTH (Rattus norvegicus [30]): 600 pg/mL

Second part, the compound before the results:

SMILES: O=c1c2ccccc2nc(-c2ccccc2O)n1CCc1ccccc1
Cmax PTH (Rattus norvegicus [3]): 400 pg/mL

SMILES: CCCCC[C@H](O)/C=C/[C@H]1[C@H](O)CC(=O)[C@@H]1C/C=C\CCCC(=O)O [DINOPROSTONE]
Activity (Rattus norvegicus [4]): 20.6%
IC50 [5]: 1.1 nM

SMILES: CC(C)CNc1nc(C#N)nc(N2CCOCC2)c1N
Selectivity ratio [6]: > 556
Selectivity ratio [7]: 111
Selectivity ratio [8]: 31

SMILES: CS(=O)(=O)c1ccc(-c2cn(CC(F)(F)F)nc2[C@@H]2CCC(Cl)(Cl)C[C@H]2C(=O)NC2(C#N)CC2)cc1
IC50 (Cathepsin K): 0.62 nM
Selectivity ratio [6]: > 16000
Selectivity ratio [7]: 4700
Selectivity ratio [8]: 4300
Selectivity ratio [9]: 1100
Selectivity ratio [10]: > 140000
Selectivity ratio [11]: 110

SMILES: C[C@@H]1O[C@@H](O[C@H]2[C@H](Oc3cc(O)c4c(c3)O[C@H](c3ccc(O)cc3)CC4=O)O[C@H](CO)[C@@H](O)[C@@H]2O)[C@H](O)[C@H](O)[C@H]1O [NARINGIN]
Activity [12]: 150%

SMILES: C=C(C)[C@@H]1CCC(C)=C[C@H]1c1c(O)cc(CCCCC)cc1O [CANNABIDIOL]
Activity (Mus musculus [13]): 136%
Activity (Mus musculus [14]): 149%
EC50 [15]: 445 nM
inhibition in vivo at 10 mg/kg (Mus musculus [16]): 18%
Activity (Mus musculus [17]): 10%

SMILES: COc1cc2c(O)c3c(O)c(OC)c(O[C@@H]4O[C@H](CO)[C@@H](O)[C@H](O)[C@H]4O)cc3c(O)c2c(O)c1OC
Activity (MC3T3-E1 [18]): 135%
Activity (MC3T3-E1 [19]): 115%

SMILES: CCCN1CCN(c2ccc(C(=O)NC3(C(=O)NCC#N)CCCCC3)cc2)CC1 [BALICATIB]
inhibition in vivo at 50 mg/kg (Homo sapiens [20]): 61%
inhibition in vivo at 50 mg/kg (Homo sapiens [21]): 55%
Activity (Homo sapiens [22]): 4.46%
Activity (Homo sapiens [23]): 2.25%

SMILES: N=C(N)N=C(N)Nc1cc(Cl)cc(Cl)c1
IC50 (Integrin alpha-V/beta-3 [26]): 33.5 nM

SMILES: COc1cc([C@H]2OC[C@H](Cc3cc(OC)c(O[C@@H]4O[C@H](CO)[C@@H](O)[C@H](O)[C@H]4O)c(OC)c3)[C@@H]2CO)cc(OC)c1O [MANGLIESIDE E]
Activity (MC3T3-E1 [27]): 112%
Activity (MC3T3-E1 [28]): 118%
Activity (MC3T3-E1 [29]): 109%
